Data reported in patent US20160060260A1, “BROMODOMAIN INHIBITORS FOR TREATING DISEASE” (Board of Regents, The University of Texas System, priority 2014, published 2016).

Biological target: T1, Recombinant human His-tagged Trim24-PHD-bromodomain (Homo sapiens, UniProt O15164)
T1 construct: Recombinant human His-tagged Trim24-PHD-bromodomain (produced in-house); made in house
T1 sequence (O15164 824-1006 limits assumed): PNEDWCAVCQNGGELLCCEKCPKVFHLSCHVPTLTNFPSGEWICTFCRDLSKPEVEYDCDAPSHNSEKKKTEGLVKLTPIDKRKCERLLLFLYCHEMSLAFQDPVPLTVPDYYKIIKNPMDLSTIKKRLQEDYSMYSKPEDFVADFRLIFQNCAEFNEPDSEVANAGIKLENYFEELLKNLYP
Assay: Trim24 AlphaScreen Assay
Format: binding
Settings: 5 nM Trim24 protein, 15 nM biotinylated H3K23ac (1-33aa) peptide
Experimental: Recombinant human His-tagged Trim24-PHD-bromodomain (produced in-house), biotinylated H3K23ac (1-33aa) peptide (AnaSpec, Inc.), and test compound were added to a 384-well OptiPlate (Perkin Elmer) and incubated at room temperature for one hour. The assay buffer consisted of 50 mM Hepes, pH 7.5, 100 mM NaCl, and 0.12 mM Triton X-100.
Streptavidin donor beads and nickel chelate acceptor beads, both from a Perkin Elmer AlphaScreen Histidine Detection Kit, were then added to the Optiplate to a final concentration of 10 ug/mL each. Following a 2 hour incubation at room temperature, the microplate was read on an Envision Plate Reader (Perkin Elmer). Percent of control (POC) values were calculated from the following formula:
POC=[sample signal-average background signal]/[average maximum signal−average background signal]*100
The average maximum signal was obtained from wells containing all assay components except test compound. The average background signal pertained to wells with all assay components except Trim24 and test compound. IC50 values were calculated using a four-parameter logistic curve fit.

Row | IC50 [nM] | SMILES
1 | 10 to 100 | CCCOc1cc(OCCCCCCN)cc(Oc2cc3c(cc2NS(=O)(=O)c2cccc(C(=O)OC)c2)n(C)c(=O)n3C)c1 [Example 191, methyl 3-(N-(6-(3-((6-aminohexyl)oxy)-5-propoxyphenoxy)-1,3-dimethyl-2-oxo-2,3-dihydro-1H-benzo[d]imidazol-5-yl)sulfamoyl)benzoate]
2 | 10 to 100 | Cc1c(S(=O)(=O)Nc2cc3c(cc2Oc2cccc(OCC4CC4)c2)n(C)c(=O)n3C)cnn1C [Example 102, N-(6-(3-(cyclopropylmethoxy)phenoxy)-1,3-dimethyl-2-oxo-2,3-dihydro-1H-benzo[d]imidazol-5-yl)-1,5-dimethyl-1H-pyrazole-4-sulfonamide]
3 | 10 to 100 | COc1ccc(S(=O)(=O)Nc2cc3c(cc2Oc2cccc(OCC(F)(F)F)c2)n(C)c(=O)n3C)cc1OC [Example 184, N-(1,3-dimethyl-2-oxo-6-(3-(2,2,2-trifluoroethoxy)phenoxy)-2,3-dihydro-1H-benzo[d]imidazol-5-yl)-3,4-dimethoxybenzenesulfonamide]
4 | 10 to 100 | CCCOc1ccc(F)c(Oc2cc3c(cc2NS(=O)(=O)c2cccnc2)n(C)c(=O)n3C)c1 [Example 135, N-(6-(2-fluoro-5-propoxyphenoxy)-1,3-dimethyl-2-oxo-2,3-dihydro-1H-benzo[d]imidazol-5-yl)pyridine-3-sulfonamide]
5 | 100 to 1000 | Cc1n[nH]c(C)c1S(=O)(=O)Nc1cc2c(cc1Oc1cccc(OCc3ccccc3)c1)n(C)c(=O)n2C [Example 2, N-(6-(3-(benzyloxy)phenoxy)-1,3-dimethyl-2-oxo-2,3-dihydro-1H-benzo[d]imidazol-5-yl)-3,5-dimethyl-1H-pyrazole-4-sulfonamide]
6 | 100 to 1000 | CCn1cnc(S(=O)(=O)Nc2cc3c(cc2Oc2cccc(OCc4ccccc4)c2)n(C)c(=O)n3C)c1 [Example 50, N-(6-(3-(benzyloxy)phenoxy)-1,3-dimethyl-2-oxo-2,3-dihydro-1H-benzo[d]imidazol-5-yl)-1-ethyl-1H-imidazole-4-sulfonamide]
7 | 100 to 1000 | CCCOc1cccc(Oc2cc3c(cc2NS(=O)(=O)c2nnc[nH]2)n(C)c(=O)n3C)c1 [Example 87, N-(1,3-diemthyl-2-oxo-6-(3-propoxyphenoxy)-2,3-dihydro-1H-benzo[d]imidazol-5-yl)-4H-1,2,4-triazole-3-sulfonamide]
8 | 10 to 100 | COc1ccc(S(=O)(=O)Nc2cc3c(cc2Oc2cccc(OCC(F)(F)F)c2)n(C)c(=O)n3C)cn1 [Example 221, N-(1,3-dimethyl-2-oxo-6-(3-(2,2,2-trifluoroethoxy)phenoxy)-2,3-dihydro-1H-benzo[d]imidazol-5-yl)-6-methoxypyridine-3-sulfonamide]
9 | 10 to 100 | Cc1nc(S(=O)(=O)Nc2cc3c(cc2Oc2cccc(OCC(F)(F)F)c2)n(C)c(=O)n3C)cn1C [Example 67, N-(1,3-dimethyl-2-oxo-6-(3-(2,2,2-trifluoroethoxy)phenoxy)-2,3-dihydro-1H-benzo[d]imidazol-5-yl)-1,2-dimethyl-1H-imidazole-4-sulfonamide]
10 | > 1000 | Cn1cnc(S(=O)(=O)Nc2cc3c(cc2Oc2cccc(OCCCC(=O)O)c2)n(C)c(=O)n3C)c1 [Example 227, 4-(3-(1,3-dimethyl-6-(1-methyl-1H-imidazole-4-sulfonamido)-2-oxo-2,3-dihydro-1H-benzo[d]imidazol-5-yloxy)phenoxy)butanoic acid]
11 | 100 to 1000 | Cc1nc(S(=O)(=O)Nc2cc3c(cc2Oc2cccc(OCc4ccccc4)c2)n(C)c(=O)n3C)cn1C [Example 26, N-(6-(3-(benzyloxy)phenoxy)-1,3-dimethyl-2-oxo-2,3-dihydro-1H-benzo[d]imidazol-5-yl)-1,2-dimethyl-1H-imidazole-4-sulfonamide]
12 | 100 to 1000 | C=CCOc1cccc(Oc2cc3c(cc2NS(=O)(=O)c2ccccn2)n(C)c(=O)n3C)c1 [Example 144, N-(6-(3-(allyloxy)phenoxy)-1,3-dimethyl-2-oxo-2,3-dihydro-1H-benzo[d]imidazol-5-yl)pyridine-2-sulfonamide]
13 | 100 to 1000 | Cn1c(=O)n(C)c2cc(Oc3cccc(OCc4ccccc4)c3)c(NS(=O)(=O)c3cccnc3)cc21 [Example 14, N-(6-(3-(benzyloxy)phenoxy)-1,3-dimethyl-2-oxo-2,3-dihydro-1H-benzo[d]imidazol-5-yl)pyridine-3-sulfonamide]
14 | 100 to 1000 | CCCOc1cc(OCCCOC)cc(Oc2cc3c(cc2NS(=O)(=O)c2cccc(F)c2)n(C)c(=O)n3C)c1 [Example 156, 3-fluoro-N-(6-(3-(3-methoxypropoxy)-5-propoxyphenoxy)-1,3-dimethyl-2-oxo-2,3-dihydro-1H-benzo[d]imidazol-5-yl)benzenesulfonamide]
15 | 10 to 100 | CCCOc1cccc(Oc2cc3c(cc2NS(=O)(=O)c2cn(C)c(C)n2)n(C)c(=O)n3C)c1 [Example 61, N-(1,3-dimethyl-2-oxo-6-(3-propoxyphenoxy)-2,3-dihydro-1H-benzo[d]imidazol-5-yl)-1,2-dimethyl-1H-imidazole-4-sulfonamide]

The remaining lines, values behind:

Row | SMILES | IC50 [nM]
16 | CCCOc1cc(OCCCCN)cc(Oc2cc3c(cc2NS(=O)(=O)c2cnn(C)c2C)n(C)c(=O)n3C)c1 [Example 199, N-(6-(3-(4-aminobutoxy)-5-propoxyphenoxy)-1,3-dimethyl-2-oxo-2,3-dihydro-1H-benzo[d]imidazol-5-yl)-1,5-dimethyl-1H-pyrazole-4-sulfonamide] | 10 to 100
17 | CCCOc1cc(OCCCOC)cc(Oc2cc3c(cc2NS(=O)(=O)c2ccccn2)n(C)c(=O)n3C)c1 [Example 158, N-(6-(3-(3-methoxypropoxy)-5-propoxyphenoxy)-1,3-dimethyl-2-oxo-2,3-dihydro-1H-benzo[d]imidazol-5-yl)pyridine-2-sulfonamide] | 10 to 100
18 | CCCOc1cc(OCCCCCCO)cc(Oc2cc3c(cc2NS(=O)(=O)c2cccc(C(=O)OC)c2)n(C)c(=O)n3C)c1 [Example 185, methyl 3-(N-(6-(3-((6-hydroxynhexyl)oxy)-5-propoxyphenoxy)-1,3-dimethyl-2-oxo-2,3-dihydro-1H-benzo[d]imidazol-5-yl)sulfamoyl)benzoate] | 100 to 1000
19 | Cc1cc(S(=O)(=O)Nc2cc3c(cc2Oc2cccc(OCc4ccccc4)c2)n(C)c(=O)n3C)n(C)n1 [Example 79, N-(6-(3-(benzyloxy)phenoxy)-1,3-dimethyl-2-oxo-2,3-dihydro-1H-benzo[d]imidazol-5-yl)-1,3-dimethyl-1H-pyrazole-5-sulfonamide] | > 1000
20 | COc1ccc(S(=O)(=O)Nc2cc3c(cc2Oc2ccc(F)c(OCC4CC4)c2)n(C)c(=O)n3C)cc1OC [Example 131, N-(6-(3-(cyclopropylmethoxy)-4-fluorophenoxy)-1,3-dimethyl-2-oxo-2,3-dihydro-1H-benzo[d]imidazol-5-yl)-3,4-dimethoxybenzenesulfonamide] | 100 to 1000
21 | CCCOc1cccc(Oc2cc3c(cc2NS(=O)(=O)c2c(C)n[nH]c2C)n(C)c(=O)n3C)c1 [Example 92, N-(1,3-dimethyl-2-oxo-6-(3-propoxyphenoxy)-2,3-dihydro-1H-benzo[d]imidazol-5-yl)-3,5-dimethyl-1H-pyrazole-4-sulfonamide] | 10 to 100
22 | COc1cccc(Oc2cc3c(cc2NS(=O)(=O)c2cn(C)cn2)n(C)c(=O)n3C)c1 [Example 63, N-(6-(3-methoxyphenoxy)-1,3-dimethyl-2-oxo-2,3-dihydro-1H-benzo[d]imidazol-5-yl)-1-methyl-1H-imidazole-4-sulfonamide] | 100 to 1000
23 | CCCOc1cc(OCCCOC)cc(Oc2cc3c(cc2NS(=O)(=O)c2ccc(OC)c(NC(C)=O)c2)n(C)c(=O)n3C)c1 [Example 159, N-(2-methoxy-5-(N-(6-(3-(3-methoxypropoxy)-5-propoxyphenoxy)-1,3-dimethyl-2-oxo-2,3-dihydro-1H-benzo[d]imidazol-5-yl)sulfamoyl)phenyl)acetamide] | 10 to 100
24 | Cc1nc(S(=O)(=O)Nc2cc3c(cc2Oc2cccc(OCC(=O)N(C)C)c2)n(C)c(=O)n3C)cn1C [Example 56, 2-(3-((6-((1,2-dimethyl-1H-imidazole)-4-sulfonamido)-1,3-dimethyl-2-oxo-2,3-dihydro-1H-benzo[d]imidazol-5-yl)oxy)phenoxy)-N,N-dimethylacetamide] | > 1000
25 | Cn1cnc(S(=O)(=O)Nc2cc3c(cc2Oc2cccc(OCCCC(F)(F)F)c2)n(C)c(=O)n3C)c1 [Example 84, N-(1,3-dimethyl-2-oxo-6-(3-(4,4,4-trifluorobutoxy)phenoxy)-2,3-dihydro-1H-benzo[d]imidazol-5-yl)-1-methyl-1H-imidazole-4-sulfonamide] | 100 to 1000
26 | Cn1cnc(S(=O)(=O)Nc2cc3c(cc2Oc2cccc(OCCCCCCN)c2)n(C)c(=O)n3C)c1 [Example 146, N-(6-(3-((6-aminohexyl)oxy)phenoxy)-1,3-dimethyl-2-oxo-2,3-dimethyl-2-oxo-2,3-dihydro-1H-benzo[d]imidazol-5-yl)-1-methyl-1H-imidazole-4-sulfonamide] | 100 to 1000
27 | CC(C)COc1cccc(Oc2cc3c(cc2NS(=O)(=O)C2CC2)n(C)c(=O)n3C)c1 [Example 59, N-(6-(3-isobutoxyphenoxy)-1,3-dimethyl-2-oxo-2,3-dihydro-1H-benzo[d]imidazol-5-yl)cyclopropanesulfonamide] | 100 to 1000
